Laboratory results reported in patent US20220372020A1, “CRYSTALLINE FORMS OF PHTHALAZINONE COMPOUND” (Idience Co., Ltd., priority 2020, published 2022).
Blank lines part the entries; values can stand above or below the compound they belong to.

Experiments:
[1] = test system: poly(ADP-ribose) polymerase (PARP); conditions: as disclosed in US'973; cited from earlier work
[2] = Long-term stability purity test (total impurities by HPLC); format: physicochemical; conditions: relative humidity 60±5%; for Total impurities content: HPLC
Method: Crystalline Form A of the compound of Formula 1 prepared in Example 1 was stored under long-term storage conditions (25±2° C., and Relative humidity: 60±5%). Samples were taken after 3 months, 6 months, 9 months, 12 months, 18 months, and even 24 months from the onset of the storage to measure total impurities content by high performance liquid chromatography (HPLC).

[3] = Storage behaviour of the amorphous form; format: physicochemical
Excerpt: The obtained amorphous form readily absorbed water during the storage, i.e., it was hygroscopic, whereby the color turned yellow. It was thus confirmed that the amorphous form was not suitable for use as a medicinal drug substance.

SMILES: Cl.O=C(c1cc(Cc2n[nH]c(=O)c3ccccc23)ccc1F)N1CC(CNC2CC2)C1 [compound of Formula 1, 4-[3-(3-[(cyclopropylamino)methyl]azetidine-1-carbonyl)-4-fluorobenzyl]phthalazin-1(2H)-one hydrochloride]
PARP inhibitory activity [1]: PARP inhibitory activity

Total impurities content ([2]; 3 months, 25±2° C.): 0.15% wt %
Total impurities content ([2]; 6 months, 25±2° C.): 0.16% wt %
Total impurities content ([2]; 9 months, 25±2° C.): 0.15% wt %
Total impurities content ([2]; 12 months, 25±2° C.): 0.14% wt %
Total impurities content ([2]; 18 months, 25±2° C.): 0.19% wt %
Stability under long-term storage conditions (in words) ([2]; 25±2° C., up to 24 months): high stability
Total impurities content ([2]; Initial, long-term storage 25±2° C.): 0.14% wt %
SMILES: Cl.O=C(c1cc(Cc2n[nH]c(=O)c3ccccc23)ccc1F)N1CC(CNC2CC2)C1 [Crystalline Form A, 4-[3-(3-[(cyclopropylamino)methyl]azetidine-1-carbonyl)-4-fluorobenzyl]phthalazin-1(2H)-one hydrochloride]

Colour change during storage [3]: turned yellow
Water absorption during storage (hygroscopicity) [3]: hygroscopic
SMILES: Cl.O=C(c1cc(Cc2n[nH]c(=O)c3ccccc23)ccc1F)N1CC(CNC2CC2)C1 [amorphous form, 4-[3-(3-[(cyclopropylamino)methyl]azetidine-1-carbonyl)-4-fluorobenzyl]phthalazin-1(2H)-one hydrochloride]
